Measurements: patent publication US11896564B2, “Medical treatment for pathologic inflammation” (PHARMACYL AB, priority 2018, dated 2024)
Counter-ions that a name gives are not always drawn.

What was measured:
[1] = tested on: LPS-induced TNF-α production in RAW264.7 murine macrophage cells; assay: Suppression of LPS-induced TNF-α production in RAW264.7 macrophages (ELISA); assay type: cell-based; settings: Mus musculus; 1 mM test substance; LPS 1 μg/ml; RAW264.7 cells
Excerpt: UC is an inflammatory disease characterized by the infiltration of inflammatory cells, such as macrophages, into the lesioned colon. Macrophages serve a critical role in the initiation and propagation of inflammatory responses by releasing proinflammatory mediators, such as TNF-α. Lipopolysaccharide (LPS) is a potent initiator of an inflammatory response. During LPS stimulation, NF-κB signaling is activated to regulate the transcription of numerous genes involved in immunity and inflammation to produce proinflammatory cytokines, such as TNF-α. Suppression of LPS-induced TNF-α production in RAW264.7 macrophages treated with AABZ was investigated by evaluation of the generation of TNF-α. The aim of this study was to evaluate the anti-inflammatory activity of AABZ.
The RAW264.7 macrophage line was maintained in DMEM supplemented with 5% FBS at 37° C. in a 5% […] air environment. The RAW264.7 cells were seeded in 96-well plates at a density of 1×10^5/ml and a volume of 200 μl/well. […] The supernatants were subsequently harvested at various time points and production of the proinflammatory cytokine TNF-α in the culture medium was determined using a commercially available enzyme-linked immunosorbent assay (ELISA) kit according to the manufacturer's protocol. […]

[2] = tested on: DSS-induced acute colitis in Balb/c mice; assay: Dextran sulfate sodium (DSS)-induced acute colitis, disease activity index; assay type: in vivo; settings: day 5
Description: The experiment was performed using 6-8-week-old female Balb/c mice after a one-week acclimatization period. The mice weighed 18-25 g, were purchased from Taconic (Denmark) and were maintained in a temperature and light-controlled facility with free access to standard rodent chow and water. Mice were randomized to the respective groups five days before start of treatment and were kept 5 to 6 animals per cage. […] The DSS intake was assessed daily.
SASP (from Sigma-Aldrich, Sweden) was first dissolved in 0.2 M sodium hydroxide (NaOH) at a concentration higher than the required final concentration. Phosphate buffered saline (PBS) was added to the desired concentration and the pH was adjusted to 7.5-8.0 with NaOH or hydrochloric acid. SASP remained completely dissolved at this pH. Cpd A hydrochloride was dissolved in PBS to the desired concentration.
All animal groups had free access to 5% DSS water solution for the entire test period. Treatments were administered from day 0 to day 5, either orally by gavage (SASP) or intraperitoneally (Cpd A), and in an administration volume of 5 ml/kg, twice daily with approximately an 8-hour interval. The control group (DSS only) received water (0.2 ml) orally twice daily. The parameters recorded in the experiment were stool consistency (0, normal; 2, loose stools; 4, watery diarrhoea), occurrence of blood in the stool (0, normal; 2, Hemoccult+; 4, gross bleeding), and body weight loss (0, none; 1, 1-5%; 2, 5-10%; 3, 10-20%; 4, >20%). Disease activity index (DAI) was calculated by summarizing the scores of these three parameters. Also the colon length and the colonic content of myeloperoxidase (MPO) were recorded. Data was statistically evaluated with analysis of variance (ANOVA). Least-squares means (LS means), and standard error (SE) of LS means were calculated.

CCN(CC)CCNC(=O)c1ccc(NC(C)=O)cc1 [4-Acetamido-N-[2-(diethylamino)ethyl]benzamide hydrochloride]
inhibition at 1000 µM [1]: 56%

CCN(CC)CCNC(=O)c1ccc(NC(C)=O)c(Cl)c1 [Cpd A, 4-Acetamido-3-chloro-N-[2-(diethylamino)ethyl]benzamide hydrochloride]
Percent Reduction of Score (Disease Activity Index) vs control ([2]; Cpd A 50 mg/kg/day bid ip): 7%

O=C(O)c1cc(/N=N/c2ccc(S(=O)(=O)Nc3ccccn3)cc2)ccc1O [SASP, sulfasalazine]
Disease Activity Index LS means ± SE ([2]; SASP 20 mg/kg/day bid po): 6.4 ± 0.5 | Percent Reduction of Score (Disease Activity Index) vs control ([2]; SASP 20 mg/kg/day bid po): 8% | Percent Reduction of Score (Disease Activity Index) vs control ([2]; SASP 40 mg/kg/day bid po): 36%
